Source: patent US6737383B1, “Herbicidal oxadiazolidines” (priority 1999, dated 2004)

What was measured:
[1] = system: sourgrass; assay: Test D sourgrass; type: in vivo, Trichachne insularis; settings: Preemergence, 0 to 100 scale
From the text: Seeds, tubers, or plant parts of Alexandergrass (Brachiaria plantaginea), bermuda-grass (Cynodon dactylon), common pursiane (Portulaca oleracea), common ragweed (Ambrosia elatior), common groundsel (Senecio vulgaris), dallisgrass (Paspalum dilatatum), goosegrass (Eleusine indica), guineagrass (Panicum maximum), itchgrass (Rottboellia exaltata), Johnson grass (Sorghum halepense), large crabgrass (Digitaria sanguinalis), pitted morningglory (Ipomoea lacunosa), purple nutsedge (Cyperus rotundus), sandbur (Cenchrus echinatus), sourgrass (Trichachne insularis), Spanishneedles (Bidens bipinnata), surinam grass (Brachiaria decumbens) and tall mallow (Malva sylvestris) were planted into greenhouse pots of flats containing greenhouse planting medium. Plant species were grown in separate pots or individual compartments. Preemergence applications were made within one day of planting the seed or plant part.
Test chemicals were formulated in a non-phytotoxic solvent mixture which included a surfactant and applied preemergence to the surface of the pot containing seeds in a sandy loam soil. Untreated control pots and treated pots were placed in the greenhouse for growth and visually evaluated for injury 14 to 21 days after herbicide application. Plant response ratings, summarized in Table C, are based on a 0 to 100 scale where 0 is no injury and 100 is complete control. A dash (−) response means no test result.

[2] = system: crabgrass; assay: Test A crabgrass; type: in vivo, Digitaria spp.; settings: 0 to 10 scale where 0 is no effect and 10 is complete control
Method in brief: (§1)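 Injury scored visually after about eleven greenhouse days against untreated plants, 0 = no effect, 10 = complete control. Compounds, formulated in surfactant-containing non-phytotoxic solvent, were applied as preemergence soil drench to sandy loam plantings and as postemergence runoff spray at the 1–2 leaf stage.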

[3] = system: morningglory; assay: Test A morningglory; type: in vivo, Ipomoea spp.; settings: 0 to 10 scale where 0 is no effect and 10 is complete control
Method in brief: as §1

[4] = system: velvetleaf; assay: Test A velvetleaf; type: in vivo, Abutilon theophrasti; settings: 0 to 10 scale where 0 is no effect and 10 is complete control
Method in brief: as §1

[5] = system: arrowleaf sida; assay: Test C postemergence arrowleaf sida; type: in vivo, Sida rhombifolia; settings: 0 to 100 scale, 0 no effect, 100 complete control
Experimental: (§2) Compounds evaluated in this test were formulated in a non-phytotoxic solvent mixture which included a surfactant and applied to plants that were grown for various periods of time before treatment (postemergence application). A mixture of sandy loam soil and greenhouse potting mix in a 60:40 ratio was used for the postemergence test.
(§3) Plantings of these crops and weed species were adjusted to produce plants of appropriate size for the postemergence test. All plant species were grown using normal greenhouse practices. Crop and weed species include arrowleaf sida (Sida rhombifolia), barnyardgrass (Echinochloa crus-galli), cocklebur (Xanthium strumarium), common ragweed (Ambrosia elatior), corn (Zea mays), cotton (Gossypium hirsutum), eastern black nightshade (Solanum ptycanthum), fall panicum (Panicum dichotomiflorum), field bindweed (Convolvulus arvensis), giant foxtail (Setaria faberii), hairy beggarticks (Bidens pilosa), ivyleaf morningglory (Ipomoea hederacea), johnsongrass (Sorghum halepense), ladysthumb smartweed (Polygonum persicaria), lambsquarters (Chenopodium album), large crabgrass (Digitaria sanguinalis), purple nutsedge (Cyperus rotundus), redroot pigweed (Amaranthus retroflexus), soybean (Glycine max), surinam grass (Brachiaria decumbens), velvetleaf (Abutilon theophrasti) and wild poinsettia (Euphorbia heterophylla).
(§4) Treated plants and untreated controls were maintained in a greenhouse for approximately 14, to 21 days, after which all treated plants were compared to untreated controls and visually evaluated. Plant response ratings, summarized in Table C, were based upon a 0 to 100 scale where 0 was no effect and 100 was complete control. A dash response (−) means no test result.

[6] = system: common ragweed; assay: Test C postemergence common ragweed; type: in vivo, Ambrosia elatior; settings: 0 to 100 scale, 0 no effect, 100 complete control
Method in brief: (§5)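 Compounds in a non-phytotoxic solvent mixture with surfactant were sprayed postemergence on greenhouse-grown plants sized for treatment, in 60:40 sandy loam soil:potting mix. After about 14 to 21 days, injury was rated visually against untreated controls on a 0–100 scale (0 no effect, 100 complete control).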

[7] = system: corn; assay: Test C postemergence corn; type: in vivo, Zea mays; settings: 0 to 100 scale, 0 no effect, 100 complete control
Experimental: as §2, §3, §4

[8] = system: cotton; assay: Test C postemergence cotton; type: in vivo, Gossypium hirsutum; settings: 0 to 100 scale, 0 no effect, 100 complete control
Experimental: as §2, §3, §4

[9] = system: eastern black nightshade; assay: Test C postemergence eastern black nightshade; type: in vivo, Solanum ptycanthum; settings: 0 to 100 scale, 0 no effect, 100 complete control
Method in brief: as §5

[10] = system: fall panicum; assay: Test C postemergence fall panicum; type: in vivo, Panicum dichotomiflorum; settings: 0 to 100 scale, 0 no effect, 100 complete control
Experimental: as §2, §3, §4

[11] = system: giant foxtail; assay: Test C postemergence giant foxtail; type: in vivo, Setaria faberii; settings: 0 to 100 scale, 0 no effect, 100 complete control
Method in brief: as §5

[12] = system: ivyleaf morningglory; assay: Test C postemergence ivyleaf morningglory; type: in vivo, Ipomoea hederacea; settings: 0 to 100 scale, 0 no effect, 100 complete control
Method in brief: as §5

[13] = system: johnsongrass; assay: Test C postemergence johnsongrass; type: in vivo, Sorghum halepense; settings: 0 to 100 scale, 0 no effect, 100 complete control
Method in brief: as §5

[14] = system: ladysthumb smartweed; assay: Test C postemergence ladysthumb smartweed; type: in vivo, Polygonum persicaria; settings: 0 to 100 scale, 0 no effect, 100 complete control
Experimental: as §2, §3, §4

[15] = system: large crabgrass; assay: Test C postemergence large crabgrass; type: in vivo, Digitaria sanguinalis; settings: 0 to 100 scale, 0 no effect, 100 complete control
Experimental: as §2, §3, §4

[16] = system: purple nutsedge; assay: Test C postemergence purple nutsedge; type: in vivo, Cyperus rotundus; settings: 0 to 100 scale, 0 no effect, 100 complete control
Experimental: as §2, §3, §4

[17] = system: redroot pigweed; assay: Test C postemergence redroot pigweed; type: in vivo, Amaranthus retroflexus; settings: 0 to 100 scale, 0 no effect, 100 complete control
Method in brief: as §5

[18] = Rate 64 g/ha, 0 no injury, 100 complete control

CCc1ccccc1-n1c(=O)on(C(=O)N(c2ccc(F)cc2)C(C)C)c1=O [Compound 34]
Plant response rating, Sourgrass ([1]; Rate 32 g/ha, 0 no injury, 100 complete control): 98
Sourgrass plant response rating [1, 18]: 100
Sourgrass plant response rating ([1]; Rate 125 g/ha, 0 no injury, 100 complete control): 100
Plant response rating, Sourgrass ([1]; Rate 250 g/ha): 100

Cc1ccccc1-n1c(=O)on(C(=O)N(c2cc(OC(C)C)c(Cl)cc2Cl)C(C)C)c1=O [Compound 42]
Plant response rating, Crabgrass ([2]; Postemergence, Rate 1000 g/ha): 0
Plant response rating, Crabgrass ([2]; Pre-emergence, Rate 2000 g/ha): 0
Plant response rating, Morningglory ([3]; Postemergence, Rate 1000 g/ha): 0
Plant response rating, Morningglory ([3]; Pre-emergence, Rate 2000 g/ha): 0
Plant response rating, Velvetleaf ([4]; Postemergence, Rate 1000 g/ha): 0
Plant response rating, Velvetleaf ([4]; Pre-emergence, Rate 2000 g/ha): 0

CC(C)N(C(=O)n1oc(=O)n(Cc2ccccc2)c1=O)c1ccccc1 [Compound 94]
Plant response rating Arrowleaf sida ([5]; Rate 280 g/ha): 10
Plant response rating Arrowleaf sida ([5]; Rate 560 g/ha): 80
Plant response rating Arrowleaf sida ([5]; Rate 1120 g/ha): 80
Plant response rating Common ragweed ([6]; Rate 140 g/ha): 0
Plant response rating Common ragweed ([6]; Rate 280 g/ha): 0
Plant response rating Common ragweed ([6]; Rate 560 g/ha): 5
Plant response rating Common ragweed ([6]; Rate 1120 g/ha): 5
Plant response rating, Corn ([7]; Rate 140 g/ha): 0
Plant response rating, Corn ([7]; Rate 280 g/ha): 0
Plant response rating, Corn ([7]; Rate 560 g/ha): 0
Plant response rating, Corn ([7]; Rate 1120 g/ha): 0
Plant response rating Cotton ([8]; Rate 140 g/ha): 20
Plant response rating Cotton ([8]; Rate 280 g/ha): 70
Plant response rating Cotton ([8]; Rate 560 g/ha): 70
Plant response rating Cotton ([8]; Rate 1120 g/ha): 80
Plant response rating E. blacknightsh ([9]; Rate 140 g/ha): 0
Plant response rating E. blacknightsh ([9]; Rate 280 g/ha): 40
Plant response rating E. blacknightsh ([9]; Rate 560 g/ha): 75
Plant response rating E. blacknightsh ([9]; Rate 1120 g/ha): 95
Plant response rating Fall panicum ([10]; Rate 140 g/ha): 0
Plant response rating Fall panicum ([10]; Rate 280 g/ha): 0
Plant response rating Fall panicum ([10]; Rate 560 g/ha): 10
Plant response rating Fall panicum ([10]; Rate 1120 g/ha): 70
Plant response rating, Giant foxtail ([11]; Rate 140 g/ha): 0
Plant response rating, Giant foxtail ([11]; Rate 280 g/ha): 0
Plant response rating, Giant foxtail ([11]; Rate 560 g/ha): 10
Plant response rating, Giant foxtail ([11]; Rate 1120 g/ha): 40
Plant response rating I. morningglory ([12]; Rate 140 g/ha): 0
Plant response rating I. morningglory ([12]; Rate 280 g/ha): 10
Plant response rating I. morningglory ([12]; Rate 560 g/ha): 90
Plant response rating Johnsongrass ([13]; Rate 140 g/ha): 0
Plant response rating Johnsongrass ([13]; Rate 280 g/ha): 0
Plant response rating Johnsongrass ([13]; Rate 560 g/ha): 0
Plant response rating Johnsongrass ([13]; Rate 1120 g/ha): 0
Plant response rating Ladysthumb ([14]; Rate 140 g/ha): 5
Plant response rating Ladysthumb ([14]; Rate 280 g/ha): 10
Plant response rating Ladysthumb ([14]; Rate 560 g/ha): 85
Plant response rating Ladysthumb ([14]; Rate 1120 g/ha): 90
Plant response rating Large crabgrass ([15]; Rate 140 g/ha): 0
Plant response rating Large crabgrass ([15]; Rate 280 g/ha): 0
Plant response rating Large crabgrass ([15]; Rate 560 g/ha): 70
Plant response rating, Purple nutsedge ([16]; Rate 140 g/ha): 0
Plant response rating, Purple nutsedge ([16]; Rate 280 g/ha): 0
Plant response rating, Purple nutsedge ([16]; Rate 560 g/ha): 0
Plant response rating, Purple nutsedge ([16]; Rate 1120 g/ha): 0
Plant response rating, Redroot pigweed ([17]; Rate 560 g/ha): 0
Plant response rating, Redroot pigweed ([17]; Rate 1120 g/ha): 0

Cc1ccc(N(C(=O)n2oc(=O)n(C(C)C)c2=O)C(C)C)cc1 [Compound 132]
Plant response rating Arrowleaf sida ([5]; Rate 140 g/ha): 0
Plant response rating Arrowleaf sida ([5]; Rate 280 g/ha): 0
Plant response rating Arrowleaf sida ([5]; Rate 560 g/ha): 10
Plant response rating Arrowleaf sida ([5]; Rate 1120 g/ha): 80
Plant response rating Common ragweed ([6]; Rate 140 g/ha): 0
Plant response rating Common ragweed ([6]; Rate 280 g/ha): 0
Plant response rating Common ragweed ([6]; Rate 560 g/ha): 0
Plant response rating Common ragweed ([6]; Rate 1120 g/ha): 0
Plant response rating, Corn ([7]; Rate 140 g/ha): 0
Plant response rating, Corn ([7]; Rate 280 g/ha): 0
Plant response rating, Corn ([7]; Rate 560 g/ha): 0
Plant response rating, Corn ([7]; Rate 1120 g/ha): 10
Plant response rating Cotton ([8]; Rate 140 g/ha): 5
Plant response rating Cotton ([8]; Rate 280 g/ha): 10
Plant response rating Cotton ([8]; Rate 560 g/ha): 20
Plant response rating Cotton ([8]; Rate 1120 g/ha): 40
Plant response rating E. blacknightsh ([9]; Rate 140 g/ha): 0
Plant response rating E. blacknightsh ([9]; Rate 280 g/ha): 0
Plant response rating E. blacknightsh ([9]; Rate 560 g/ha): 0
Plant response rating E. blacknightsh ([9]; Rate 1120 g/ha): 0
Plant response rating Fall panicum ([10]; Rate 140 g/ha): 0
Plant response rating Fall panicum ([10]; Rate 280 g/ha): 30
Plant response rating Fall panicum ([10]; Rate 560 g/ha): 50
Plant response rating Fall panicum ([10]; Rate 1120 g/ha): 50
Plant response rating, Giant foxtail ([11]; Rate 140 g/ha): 0
Plant response rating, Giant foxtail ([11]; Rate 280 g/ha): 0
Plant response rating, Giant foxtail ([11]; Rate 560 g/ha): 0
Plant response rating, Giant foxtail ([11]; Rate 1120 g/ha): 0
Plant response rating I. morningglory ([12]; Rate 140 g/ha): 0
Plant response rating I. morningglory ([12]; Rate 280 g/ha): 0
Plant response rating I. morningglory ([12]; Rate 560 g/ha): 0
Plant response rating I. morningglory ([12]; Rate 1120 g/ha): 0
Plant response rating Johnsongrass ([13]; Rate 140 g/ha): 0
Plant response rating Johnsongrass ([13]; Rate 280 g/ha): 0
Plant response rating Johnsongrass ([13]; Rate 560 g/ha): 0
Plant response rating Johnsongrass ([13]; Rate 1120 g/ha): 60
Plant response rating Large crabgrass ([15]; Rate 140 g/ha): 0
Plant response rating Large crabgrass ([15]; Rate 280 g/ha): 10
Plant response rating Large crabgrass ([15]; Rate 560 g/ha): 40
Plant response rating Large crabgrass ([15]; Rate 1120 g/ha): 80
Plant response rating, Purple nutsedge ([16]; Rate 140 g/ha): 0
Plant response rating, Purple nutsedge ([16]; Rate 280 g/ha): 0
Plant response rating, Purple nutsedge ([16]; Rate 560 g/ha): 0
Plant response rating, Purple nutsedge ([16]; Rate 1120 g/ha): 0
Plant response rating, Redroot pigweed ([17]; Rate 140 g/ha): 0
Plant response rating, Redroot pigweed ([17]; Rate 280 g/ha): 10
Plant response rating, Redroot pigweed ([17]; Rate 1120 g/ha): 30
Plant response rating, Sourgrass [1, 18]: 100
